In patent publication US6653307B2, “1-aryl-4-oxo-1,4-dihydro-3-quinolinecarboxamides as antiviral agents” (Pharmacia & Upjohn Company, priority 2000, dated 2003):

Legend:
VZV polymerase = VZV polymerase (Varicella-zoster virus, UniProt P09252); assay: VZV polymerase assay (Table 1); assay type: biochemical
Experimental: [Worded in the source for another target; this target is reported under the same test.] (§1) The HCMV polymerase assay is performed using a scintillation proximity assay (SPA) as described in several references, such as N.D. Cook, et al., Pharmaceutical Manufacturing International, pages 49-53 (1992); K. Takeuchi, Laboratory Practice, September issue (1992); U.S. Pat. No. 4,568,649 (1986); which are incorporated by reference herein. Reactions are performed in 96-well plates. The assay is conducted in 100 μl volume with 5.4 mM HEPES (pH 7.5), 11.7 mM KCl, 4.5 mM MgCl2, 0.36 mg/ml BSA, and 90 nM ^3H-dTTP. Assays are run with and without CHAPS, (3-[(3-cholamidopropyl)-dimethylammonio]-1-propane-sulfonate) at a final concentration of 2 mM. HCMV polymerase is diluted in enzyme dilution buffer containing 50% glycerol, 250 mM NaCl, 10 mM HEPES (pH 7.5), 100 μg/ml BSA, and 0.01% sodium azide. The HCMV polymerase, which is expressed in recombinant baculovirus-infected SF-9 cells and purified according to literature procedures, is added at 10% (or 10 μl) of the final reaction volume, i.e., […]. Compounds are diluted in 50% DMSO and 10 μl are added to each well. Control wells contain an equivalent concentration of DMSO. Unless noted otherwise, reactions are initiated via the addition of 6 nM biotinylated poly(dA)-oligo(dT) template/primer to reaction mixtures containing the enzyme, substrate, and compounds of interest. Plates are incubated in a 25 C or 37 C H2O bath and terminated via the addition of 40 μl/reaction of 0.5 M EDTA (pH 8) per well. Reactions are terminated within the time-frame during which substrate incorporation is linear and varied depending upon the enzyme and conditions used, i.e., 30 min. for HCMV polymerase. Ten μl of streptavidin-SPA beads (20 mg/ml in PBS/10% glycerol) are added following termination of the reaction. Plates are incubated 10 min. at 37 C, then equilibrated to room temperature, and counted on a Packard Topcount. Linear regressions are performed and IC50's are calculated using computer software. A modified version of the above HCMV polymerase assay is performed as described above, but with the following changes: Compounds are diluted in 100% DMSO until final dilution into assay buffer. In the previous assay, compounds are diluted in 50% DMSO. 4.5 mM dithiotherotol (DTT) is added to the polymerase buffer.

HSV polymerase = HSV polymerase (Human herpesvirus 1, UniProt P04293); assay: HSV polymerase assay (Table 1); assay type: biochemical
Experimental: [Worded in the source for another target; this target is reported under the same test.] as §1

HCMV polymerase = biological target: T1, HCMV polymerase (Human cytomegalovirus, UniProt P08546); assay: HCMV polymerase scintillation proximity assay (SPA); assay type: biochemical; conditions: 3H-dTTP incorporation
T1 construct: made in house; host or cells: recombinant baculovirus-infected SF-9 cells
Experimental: as §1

Sequence of HSV polymerase (P04293 whole entry): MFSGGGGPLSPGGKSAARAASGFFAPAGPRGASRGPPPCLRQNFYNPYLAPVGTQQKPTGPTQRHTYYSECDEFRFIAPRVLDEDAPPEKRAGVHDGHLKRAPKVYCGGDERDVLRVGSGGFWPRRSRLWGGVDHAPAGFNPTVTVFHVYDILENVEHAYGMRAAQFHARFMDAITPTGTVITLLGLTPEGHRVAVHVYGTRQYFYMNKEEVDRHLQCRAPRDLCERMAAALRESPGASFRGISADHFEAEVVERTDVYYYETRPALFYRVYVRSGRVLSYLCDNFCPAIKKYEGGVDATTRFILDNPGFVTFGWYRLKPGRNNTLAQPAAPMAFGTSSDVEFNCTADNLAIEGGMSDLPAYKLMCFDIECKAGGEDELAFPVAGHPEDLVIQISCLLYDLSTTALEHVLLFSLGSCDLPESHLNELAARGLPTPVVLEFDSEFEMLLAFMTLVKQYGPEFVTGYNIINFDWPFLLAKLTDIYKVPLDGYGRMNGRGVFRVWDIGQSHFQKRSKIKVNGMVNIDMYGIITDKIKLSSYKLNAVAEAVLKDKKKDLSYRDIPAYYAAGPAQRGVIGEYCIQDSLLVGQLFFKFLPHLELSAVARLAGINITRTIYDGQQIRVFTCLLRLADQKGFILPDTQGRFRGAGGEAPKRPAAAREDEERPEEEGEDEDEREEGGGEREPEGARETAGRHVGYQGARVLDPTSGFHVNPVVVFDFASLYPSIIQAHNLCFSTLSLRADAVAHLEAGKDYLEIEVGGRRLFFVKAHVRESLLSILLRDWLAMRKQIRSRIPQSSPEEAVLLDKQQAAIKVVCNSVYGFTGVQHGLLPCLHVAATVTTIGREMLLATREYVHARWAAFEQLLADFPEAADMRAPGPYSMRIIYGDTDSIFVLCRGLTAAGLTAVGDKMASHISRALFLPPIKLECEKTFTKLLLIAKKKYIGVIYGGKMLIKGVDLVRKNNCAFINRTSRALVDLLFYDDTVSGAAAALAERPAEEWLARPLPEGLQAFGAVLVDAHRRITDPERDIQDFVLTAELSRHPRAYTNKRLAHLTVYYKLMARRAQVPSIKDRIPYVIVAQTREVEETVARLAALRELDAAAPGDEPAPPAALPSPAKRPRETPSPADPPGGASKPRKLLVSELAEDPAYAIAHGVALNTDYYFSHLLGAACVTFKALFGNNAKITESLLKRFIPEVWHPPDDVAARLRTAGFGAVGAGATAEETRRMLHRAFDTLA
T1 sequence (P08546 whole entry): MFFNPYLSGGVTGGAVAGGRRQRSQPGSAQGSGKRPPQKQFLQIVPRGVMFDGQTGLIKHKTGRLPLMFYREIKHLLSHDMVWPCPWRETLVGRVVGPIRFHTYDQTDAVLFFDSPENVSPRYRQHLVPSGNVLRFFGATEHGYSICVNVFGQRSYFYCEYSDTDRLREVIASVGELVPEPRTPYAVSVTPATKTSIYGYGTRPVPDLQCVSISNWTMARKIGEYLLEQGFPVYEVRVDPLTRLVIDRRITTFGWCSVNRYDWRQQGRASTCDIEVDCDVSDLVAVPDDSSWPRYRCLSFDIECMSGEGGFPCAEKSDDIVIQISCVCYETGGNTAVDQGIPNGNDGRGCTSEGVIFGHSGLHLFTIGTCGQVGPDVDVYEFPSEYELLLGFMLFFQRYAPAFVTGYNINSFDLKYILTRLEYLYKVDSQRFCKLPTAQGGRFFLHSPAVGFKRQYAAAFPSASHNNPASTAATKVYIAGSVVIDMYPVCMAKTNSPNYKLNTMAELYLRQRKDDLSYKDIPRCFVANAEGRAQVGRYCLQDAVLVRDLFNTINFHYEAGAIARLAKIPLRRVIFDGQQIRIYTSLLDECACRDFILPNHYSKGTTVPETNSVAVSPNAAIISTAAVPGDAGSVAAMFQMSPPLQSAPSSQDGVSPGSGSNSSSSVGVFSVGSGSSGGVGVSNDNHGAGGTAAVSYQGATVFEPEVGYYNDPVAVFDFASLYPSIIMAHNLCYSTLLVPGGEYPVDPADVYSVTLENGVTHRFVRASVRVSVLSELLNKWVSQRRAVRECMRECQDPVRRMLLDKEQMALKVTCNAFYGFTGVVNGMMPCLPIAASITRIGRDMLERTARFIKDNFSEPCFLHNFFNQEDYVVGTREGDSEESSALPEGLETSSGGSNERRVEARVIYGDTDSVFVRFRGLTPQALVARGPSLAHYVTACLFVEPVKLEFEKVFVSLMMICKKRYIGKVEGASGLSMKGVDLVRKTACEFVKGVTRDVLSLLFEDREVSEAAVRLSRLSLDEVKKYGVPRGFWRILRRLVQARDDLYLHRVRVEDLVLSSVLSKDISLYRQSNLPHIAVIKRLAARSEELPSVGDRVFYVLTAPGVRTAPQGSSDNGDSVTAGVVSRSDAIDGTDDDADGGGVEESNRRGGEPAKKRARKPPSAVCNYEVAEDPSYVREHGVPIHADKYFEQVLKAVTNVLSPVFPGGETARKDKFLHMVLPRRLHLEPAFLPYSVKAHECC
Sequence of VZV polymerase (P09252 whole entry): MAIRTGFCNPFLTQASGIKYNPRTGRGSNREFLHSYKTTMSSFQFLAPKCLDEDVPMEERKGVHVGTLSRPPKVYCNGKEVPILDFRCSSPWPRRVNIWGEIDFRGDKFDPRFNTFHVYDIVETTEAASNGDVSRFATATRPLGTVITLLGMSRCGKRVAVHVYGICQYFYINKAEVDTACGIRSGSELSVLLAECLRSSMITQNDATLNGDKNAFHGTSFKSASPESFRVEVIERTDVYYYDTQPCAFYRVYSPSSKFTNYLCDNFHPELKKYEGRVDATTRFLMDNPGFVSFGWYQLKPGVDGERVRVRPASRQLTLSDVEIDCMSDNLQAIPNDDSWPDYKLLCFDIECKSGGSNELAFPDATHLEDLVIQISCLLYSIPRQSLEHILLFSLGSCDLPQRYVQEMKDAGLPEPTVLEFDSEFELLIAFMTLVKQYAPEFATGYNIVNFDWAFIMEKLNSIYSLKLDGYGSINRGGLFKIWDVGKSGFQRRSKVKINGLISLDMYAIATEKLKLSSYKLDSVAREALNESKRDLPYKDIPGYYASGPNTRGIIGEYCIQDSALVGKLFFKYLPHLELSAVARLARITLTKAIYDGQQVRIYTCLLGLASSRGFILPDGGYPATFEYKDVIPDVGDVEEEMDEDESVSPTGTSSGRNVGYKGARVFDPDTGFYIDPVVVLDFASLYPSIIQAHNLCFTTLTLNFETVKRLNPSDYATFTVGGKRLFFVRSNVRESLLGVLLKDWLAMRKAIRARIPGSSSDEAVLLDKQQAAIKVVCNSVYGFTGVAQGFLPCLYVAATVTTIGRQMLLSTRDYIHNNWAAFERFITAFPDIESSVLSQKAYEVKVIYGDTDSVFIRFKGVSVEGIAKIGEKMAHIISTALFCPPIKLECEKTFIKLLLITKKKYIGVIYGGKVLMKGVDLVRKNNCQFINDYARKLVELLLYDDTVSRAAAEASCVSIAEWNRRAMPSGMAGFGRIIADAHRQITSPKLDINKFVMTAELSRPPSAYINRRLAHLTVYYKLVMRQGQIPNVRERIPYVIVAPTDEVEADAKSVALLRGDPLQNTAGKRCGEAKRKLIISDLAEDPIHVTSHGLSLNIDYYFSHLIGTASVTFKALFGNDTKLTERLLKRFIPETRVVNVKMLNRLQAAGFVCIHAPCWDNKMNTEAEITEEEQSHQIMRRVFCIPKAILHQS

Structure (SMILES)	melting point [°C]	IC50 (VZV polymerase) [µM]	IC50 (HSV polymerase) [µM]	IC50 (HCMV polymerase) [µM]
O=C(NCc1ccc(Cl)cc1)c1cn(-c2ccccc2)c2ccc(CN3CCOCC3)cc2c1=O [Example 1, N-(4-Chlorobenzyl)-6-(4-morpholinylmethyl)-4-oxo-1-phenyl-1,4-dihydro-3-quinolinecarboxamide]	168 to 169	0.4	0.55	0.81
Cc1ccccc1-n1cc(C(=O)NCc2ccc(Cl)cc2)c(=O)c2cc(CN3CCOCC3)ccc21 [Example 2, N-(4-Chlorobenzyl)-1-(2-methylphenyl)-6-(4-morpholinylmethyl)-4-oxo-1,4-dihydro-3-quinolinecarboxamide]	148 to 150	–	–	3
O=C(NCc1ccc(Cl)cc1)c1cn(-c2cccc(I)c2)c2ccc(CN3CCOCC3)cc2c1=O [Example 3, N-(4-Chlorobenzyl)-1-(3-iodophenyl)-6-(4-morpholinylmethyl)-4-oxo-1,4-dihydro-3-quinolinecarboxamide]	176 to 179	–	–	2.1
O=C(NCc1ccc(Cl)cc1)c1cn(-c2ccc(Cl)cc2)c2ccc(CN3CCOCC3)cc2c1=O [Example 4, N-(4-Chlorobenzyl)-1-(4-chlorophenyl)-6-(4-morpholinylmethyl)-4-oxo-1,4-dihydro-3-quinolinecarboxamide]	189 to 191	–	–	1.1
CC(C)c1ccc(-n2cc(C(=O)NCc3ccc(Cl)cc3)c(=O)c3cc(CN4CCOCC4)ccc32)cc1 [Example 5, N-(4-Chlorobenzyl)-1-(4-isopropylphenyl)-6-(4-morpholinylmethyl)-4-oxo-1,4-dihydro-3-quinolinecarboxamnide]	199 to 203	–	–	4
COc1ccc(-n2cc(C(=O)NCc3ccc(Cl)cc3)c(=O)c3cc(CN4CCOCC4)ccc32)cc1 [Example 6, N-(4-Chlorobenzyl)-1-(4-methoxyphenyl)-6-(4-morpholinylmethyl)-4-oxo-1,4-dihydro-3-quinolinecarboxamide]	189 to 191	–	–	1.1
O=C(NCc1ccc(F)cc1)c1cn(-c2ccc(Cl)cc2)c2ccc(CN3CCOCC3)cc2c1=O [Example 7, N-(4-Fluorobenzyl)-1-(4-chlorophenyl)-6-(4-morpholinylmethyl)-4-oxo-1,4-dihydro-3-quinolinecarboxamide]	–	–	–	2
O=C(NCc1ccc(Cl)cc1)c1cn(-c2ccccc2CO)c2ccc(CN3CCOCC3)cc2c1=O [Example 8, N-(4-Chlorobenzyl)-1-(2-(hydroxymethyl)phenyl)-6-(4-morpholinylmethyl)-4-oxo-1,4-dihydro-3-quinolinecarboxamide]	162 to 163	–	–	1.47
O=C(NCc1ccc(Cl)cc1)c1cn(-c2ccc3c(c2)CCC3)c2ccc(CN3CCOCC3)cc2c1=O [Example 9, N-(4-Chlorobenzyl)-1-(2,3-dihydro-1H-inden-5-yl)-6-(4-morpholinylmethyl)-4-oxo-1,4-dihydro-3-quinolinecarboxamide]	123 to 125	–	–	1.32
O=C(NCc1ccc(Cl)cc1)c1cn(-c2ccc3c(c2)OCO3)c2ccc(CN3CCOCC3)cc2c1=O [Example 10, 1-(1,3-Benzodioxol-5-yl)-N-(4-chlorobenzyl)-6-(4-morpholinylmethyl)-4-oxo-1,4-dihydro-3-quinolinecarboxamide]	188 to 189	–	–	0.89
O=C(NCc1ccc(Cl)cc1)c1cn(-c2ccc3[nH]ccc3c2)c2ccc(CN3CCOCC3)cc2c1=O [Example 11, N-(4-Chlorobenzyl)-1-(1H-indol-5-yl)-6-(4-morpholinylmethyl)-4-oxo-1,4-dihydro-3-quinolinecarboxamide]	241 to 243	–	–	1.18
O=C(NCc1ccc(F)cc1)c1cn(-c2ccc3[nH]ccc3c2)c2ccc(CN3CCOCC3)cc2c1=O [Example 12, N-(4-Fluorobenzyl)-1-(1 H-indol-5-yl)-6-(4-morpholinylmethyl)-4-oxo-1,4-dihydro-3-quinolinecarboxamide]	223 to 225	–	–	2.2
O=C(NCc1ccc(Cl)cc1)c1cn(-c2cccc(O)c2)c2ccc(CN3CCOCC3)cc2c1=O [Example 13, N-(4-Chlorobenzyl)-I-(3-hydroxyphenyl)-6-(4-morpholinylmethyl)-4-oxo-1,4-dihydro-3-quinolinecarboxamide]	248 to 250	0.24	0.54	0.73
O=C(NCc1ccc(Cl)cc1)c1cn(-c2cccc(CCO)c2)c2ccc(CN3CCOCC3)cc2c1=O [Example 14, N-(4-Chlorobenzyl)-1-(3-(2-hydroxyethyl)phenyl)-6-(4-morpholinylmethyl)-4-oxo-1,4-dihydro-3-quinolinecarboxamide]	158 to 160	0.43	0.7	0.82
O=C(NCc1ccc(F)cc1)c1cn(-c2cccc(CCO)c2)c2ccc(CN3CCOCC3)cc2c1=O [Example 15, N-(4-Fluorobenzyl)-1-(3-(2-hydroxyethyl)phenyl)-6-(4-morpholinylmethyl)-4-oxo-1,4-dihydro-3-quinolinecarboxamide]	128 to 132	–	–	1.7
COc1cccc(-n2cc(C(=O)NCc3ccc(Cl)cc3)c(=O)c3cc(CN4CCOCC4)ccc32)c1 [Example 16, N-(4-Chlorobenzyl)-1-(3-methoxyphenyl)-6-(4-morpholinylmethyl)-4-oxo-1,4-dihydro-3-quinolinecarboxamide]	110 to 113	–	–	1.9
O=C(NCc1ccc(Cl)cc1)c1cn(-c2cccc(CO)c2)c2ccc(CN3CCOCC3)cc2c1=O [Example 17, N-(4-Chlorobenzyl)-1-(3-(hydroxymethyl)phenyl)-6-(4-morpholinylmethyl)-4-oxo-1,4-dihydro-3-quinolinecarboxamide]	119 to 121	0.31	0.44	0.74
O=C(NCc1ccc(Cl)cc1)c1cn(-c2ccc(N3CCOCC3)cc2)c2ccc(CN3CCOCC3)cc2c1=O [Example 18, N-(4-Chlorobenzyl)-6-(4-morpholinylmethyl)-1-(4-(4-morpholinyl)phenyl)-4-oxo-1,4-dihydro-3-quinolinecarboxamide]	162 to 164	–	–	1.21
O=C(NCc1ccc(Cl)cc1)c1cn(-c2ccc(F)c(F)c2)c2ccc(CN3CCOCC3)cc2c1=O [Example 19, N-(4-Chlorobenzyl)-1-(3,4-difluorophenyl)-6-(4-morpholinylmethyl)-4-oxo-1,4-dihydro-3-quinolinecarboxamide]	107 to 110	–	–	1.05
O=C(NCc1ccc(Cl)cc1)c1cn(-c2cccc(C#CCO)c2)c2ccc(CN3CCOCC3)cc2c1=O [Example 20, N-(4-Chlorobenzyl)-1-(3-(3-hydroxy-1-propynyl)phenyl)-6-(4-morpholinylmethyl)-4-oxo-1,4-dihydro-3-quinolinecarboxamide]	145 to 148	0.29	0.59	0.57
O=C(NCc1ccc(Cl)cc1)c1cn(-c2cccc(C#CCCO)c2)c2ccc(CN3CCOCC3)cc2c1=O [Example 21, N-(4-Chlorobenzyl)-1-(3-(4-hydroxy-1-butynyl)phenyl)-6-(4-morpholinylmethyl)-4-oxo-1,4-dihydro-3-quinolinecarboxamide]	125 to 128	–	–	1.13
O=C(NCc1ccc(Cl)cc1)c1cn(-c2cccc(C#CCCCO)c2)c2ccc(CN3CCOCC3)cc2c1=O [Example 22]	125 to 128	–	–	0.93
O=C(NCc1ccc(Cl)cc1)c1cn(-c2cccc(CCCCCO)c2)c2ccc(CN3CCOCC3)cc2c1=O [Example 23, N-(4-Chlorobenzyl)-1-(3-(5-hydroxypentyl)phenyl)-6-(4-morpholinylmethyl)-4-oxo-1,4-dihydro-3-quinolinecarboxamide]	142 to 144	–	–	0.76
O=C(NCc1ccc(Cl)cc1)c1cn(-c2cccc(CCCCO)c2)c2ccc(CN3CCOCC3)cc2c1=O [Example 24, N-(4-Chlorobenzyl)-1-(3-(4-hydroxybutyl)phenyl)-6-(4-morpholinylmethyl)-4-oxo-1,4-dihydro-3-quinolinecarboxamide]	119 to 121	–	–	0.68
